Among the test systems are ACHN; UACC-257; HT-29; 786-0; SNB-75; SK-MEL-28; U-251; IGROV-1; OVCAR-8; HOP-18; RPMI-8226; NCI-H23; M14; MCF7; MDA-MB-231; NCI-H522; BT-549; HOP-92; Hs-578T; DU-145.
Test in all cases: NCI anticancer screen, dose series, 48 h

Structures are written as SMILES.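 Five compound concentrations were applied to cells in 96-well plates for 48 hours; endpoints were derived by simple linear interpolation of the resulting dose-response curve. At the GI50, growth is halved.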 Activity calls are given as the source filed them. No stated cut-off is given here; in the data, active = GI50 up to about 1.1 µM and inactive = higher.

Turning to `COc1ccc(C(Cc2cc(OC)c(OC)c(OC)c2)C(=O)O)cc1` (stereo unspecified), the GI50 was > 100 µM (inactive) in the experiment with ACHN; 54.3 µM (inactive) in the experiment on UACC-257; 37.6 µM (inactive) with HT-29; 71.8 µM (inactive) in the experiment with 786-0; 22.8 µM (inactive) in the experiment with SNB-75; 56.6 µM (inactive) in the experiment on SK-MEL-28. Besides, the GI50 in the experiment on U-251 was > 100 µM (inactive); in the experiment with IGROV-1 it was 76.2 µM (inactive); in the experiment on OVCAR-8 it was > 100 µM (inactive); in the experiment on HOP-18, > 100 µM (inactive); in the experiment on RPMI-8226, 55.8 µM (inactive); in the experiment on NCI-H23, 97.9 µM (inactive). For the same compound, in the experiment with M14, the GI50 is 44.6 µM (inactive).
`Oc1c2c(c(O)c3ccccc13)C1(N=N2)c2ccccc2Oc2ccccc21`: the GI50 in the experiment on ACHN is 3.79 µM (inactive); in the experiment on UACC-257, 5.71 µM (inactive); in the experiment with HT-29, 6.11 µM (inactive); in the experiment on MCF7, 3.09 µM (inactive); in the experiment on 786-0, 3.2 µM (inactive); in the experiment on MDA-MB-231, 13.9 µM (inactive). The GI50 is 17.3 µM (inactive) with SNB-75; 11.4 µM (inactive) with SK-MEL-28; 1.98 µM (inactive) in the experiment with NCI-H522; 3.9 µM (inactive) in the experiment on U-251; 10.7 µM (inactive) with BT-549; 15.8 µM (inactive) in the experiment with HOP-92. Besides, the GI50 in the experiment with IGROV-1 was 2.52 µM (inactive); in the experiment on OVCAR-8 it was 3.2 µM (inactive); in the experiment with Hs-578T, 5.56 µM (inactive); with DU-145 it was 8.73 µM (inactive); in the experiment on RPMI-8226 it was 2.88 µM (inactive); with NCI-H23, 15.2 µM (inactive). Further, in the experiment on M14, the GI50 is 8.38 µM (inactive).
Regarding `CCOC(=O)NC(NNc1ccc([N+](=O)[O-])cc1[N+](=O)[O-])(C(F)(F)F)C(F)(F)F`, the GI50 in the experiment on ACHN is 43.3 µM (inactive); in the experiment with UACC-257 it was 43.1 µM (inactive); in the experiment with HT-29, 32.3 µM (inactive); in the experiment with MCF7, 62.5 µM (inactive); in the experiment on 786-0, 43.9 µM (inactive); in the experiment with MDA-MB-231, 15.8 µM (inactive). Besides, the GI50 with SNB-75 was 45.7 µM (inactive); with SK-MEL-28, 52.4 µM (inactive); in the experiment with NCI-H522, 30.5 µM (inactive); in the experiment with U-251 it was 22 µM (inactive); with BT-549, 25.5 µM (inactive); with HOP-92, 12.7 µM (inactive). The GI50 with IGROV-1 was 54.8 µM (inactive); in the experiment on OVCAR-8 it was 30.8 µM (inactive); with Hs-578T, 34.4 µM (inactive); in the experiment with DU-145, 40.3 µM (inactive); with RPMI-8226, 17.9 µM (inactive); with NCI-H23, 31.7 µM (inactive). In addition, in the experiment on M14, the GI50 is 65.2 µM (inactive).
On to `COc1cc(O)c(/C=N/N=C(\N)NO)c(OC)c1`, for which the GI50 in the experiment on ACHN is 9.14 µM (inactive); in the experiment on UACC-257, > 10 µM (inactive); in the experiment with HT-29, 6.31 µM (inactive); in the experiment with MCF7, > 10 µM (inactive); in the experiment on 786-0, > 10 µM (inactive); in the experiment with MDA-MB-231, > 10 µM (inactive). Moreover, the GI50 is 1.56 µM (inactive) with SNB-75; > 10 µM (inactive) with SK-MEL-28; > 10 µM (inactive) in the experiment with NCI-H522; > 10 µM (inactive) in the experiment with U-251; > 10 µM (inactive) in the experiment on BT-549; > 10 µM (inactive) with HOP-92. Further, the GI50 in the experiment on IGROV-1 is > 10 µM (inactive); in the experiment on OVCAR-8 it was > 10 µM (inactive); in the experiment on Hs-578T it was > 10 µM (inactive); in the experiment on DU-145, 6.24 µM (inactive); in the experiment on RPMI-8226, > 10 µM (inactive); with NCI-H23, > 10 µM (inactive). Further, in the experiment on M14, the GI50 is > 10 µM (inactive).
Take `COC(=O)c1cc2c(cc1C(=O)OC)[C@@]1(C)CCCC(C)(C)C1CC2` (stereo partly specified): the GI50 is 20.7 µM (inactive) in the experiment with ACHN; 19.5 µM (inactive) in the experiment on UACC-257; 15.6 µM (inactive) with HT-29; 15 µM (inactive) in the experiment with MCF7; 19.5 µM (inactive) with 786-0; 17.3 µM (inactive) with MDA-MB-231. In addition, the GI50 was 30 µM (inactive) with SNB-75; 26.3 µM (inactive) in the experiment on SK-MEL-28; 16.9 µM (inactive) in the experiment with NCI-H522; 18.4 µM (inactive) with U-251; 28.6 µM (inactive) in the experiment on BT-549; 9.91 µM (inactive) in the experiment on HOP-92. For the same compound, the GI50 is 10.4 µM (inactive) in the experiment on IGROV-1; 30.9 µM (inactive) in the experiment on OVCAR-8; 17.7 µM (inactive) in the experiment on Hs-578T; 14.1 µM (inactive) in the experiment on DU-145; 10.7 µM (inactive) in the experiment on RPMI-8226; 30.5 µM (inactive) with NCI-H23. Also, the GI50 in the experiment with M14 was 22.9 µM (inactive).
As to `c1ccc([P+](CCCCCCCC[P+](c2ccccc2)(c2ccccc2)c2ccccc2)(c2ccccc2)c2ccccc2)cc1`, the GI50 was 58.9 µM (inactive) in the experiment with ACHN; 0.92 µM (active) with UACC-257; 2.04 µM (inactive) with HT-29; 4.48 µM (inactive) in the experiment on MCF7; 16.6 µM (inactive) in the experiment on 786-0; 7.13 µM (inactive) in the experiment on MDA-MB-231. In addition, the GI50 was 0.307 µM (active) in the experiment on SNB-75; 16.9 µM (inactive) in the experiment with SK-MEL-28; 1.8 µM (inactive) with NCI-H522; 0.22 µM (active) in the experiment on U-251; 1.99 µM (inactive) in the experiment with BT-549; 3.07 µM (inactive) with HOP-92. For the same compound, the GI50 with IGROV-1 is 2.4 µM (inactive); with OVCAR-8, 4.4 µM (inactive); in the experiment with Hs-578T, 2.06 µM (inactive); with DU-145 it was 30 µM (inactive); in the experiment with RPMI-8226, 1.87 µM (inactive); with NCI-H23, 2.16 µM (inactive). In addition, the GI50 in the experiment on M14 was 35.6 µM (inactive).
Regarding `CCOC(=O)C1CCCN1C(=O)c1ccccc1Cl` (stereo unspecified), the GI50 in the experiment on ACHN, in the experiment on UACC-257, in the experiment on HT-29, with MCF7, in the experiment with 786-0 and in the experiment on MDA-MB-231 was > 100 µM (inactive) in each case. Also, the GI50 with SNB-75 was > 100 µM (inactive); in the experiment on SK-MEL-28, > 100 µM (inactive); in the experiment on NCI-H522 it was > 100 µM (inactive); in the experiment on U-251, > 100 µM (inactive); in the experiment with BT-549, > 100 µM (inactive); in the experiment with HOP-92, 75.9 µM (inactive). Besides, the GI50 in the experiment with IGROV-1, in the experiment with OVCAR-8, in the experiment with Hs-578T, in the experiment with DU-145, in the experiment with RPMI-8226 and with NCI-H23 was > 100 µM (inactive) throughout. In the experiment on M14, the GI50 was > 100 µM (inactive).
Regarding `COc1cc2c3c(n(C)c(=O)c2cc1OC)-c1cc2c(cc1C3=O)OCO2`, the GI50 with ACHN was 1.01 µM (active); in the experiment on UACC-257, > 83.9 µM (inactive); in the experiment with HT-29, 46.5 µM (inactive); in the experiment with MCF7, 1.23 µM (inactive); in the experiment on 786-0, 16.9 µM (inactive); in the experiment on MDA-MB-231, > 57.1 µM (inactive). For the same compound, the GI50 in the experiment on SNB-75 was 3.73 µM (inactive); in the experiment on SK-MEL-28 it was > 66.1 µM (inactive); in the experiment on NCI-H522, 1.46 µM (inactive); in the experiment with U-251, 9.38 µM (inactive); in the experiment on BT-549, > 86.9 µM (inactive); in the experiment with HOP-92, 38.2 µM (inactive). Besides, the GI50 was 2.47 µM (inactive) with IGROV-1; 38.4 µM (inactive) in the experiment with OVCAR-8; > 80 µM (inactive) in the experiment on Hs-578T; 12 µM (inactive) with DU-145; 71.3 µM (inactive) in the experiment with RPMI-8226; 5.01 µM (inactive) in the experiment on NCI-H23. The GI50 with M14 is 9.91 µM (inactive).

Values taken from ChEMBL document CHEMBL1201862, “PubChem BioAssay data set” (2004).
